Assay results taken from publication PMC8041276 (ACS Chemical Neuroscience, 2021).

Assays:
[1] = system: scopolamine-induced cognitive impairment; experiment: Novel object recognition (NOR) test under scopolamine-induced memory decline; format: in vivo, male Sprague-Dawley rats; conditions: rats, scopolamine 1.25 mg/kg ip
Method: The experiments were conducted in accordance with the NIH Guide for the Care and Use of Laboratory Animals and were approved by the II Local Ethics Committee for Animal Experiments, Maj Institute of Pharmacology. Male […] Sprague-Dawley rats (Charles River, Germany) weighing ∼250 g at the arrival were housed in the standard laboratory cages, under standard colony A/C controlled conditions: room temperature 21 ± 2 °C, humidity (40–50%), 12 h light/dark cycle (lights on, 06:00) with ad libitum access to food (unless stated otherwise) and water. Rats were allowed to acclimatize for at least 7 days before the start of the experimental procedure. During this week animals were handled at least 3 times. Behavioral testing was carried out during the light phase of the light/dark cycle. […]
The procedure consisted of habituation to the arena (without any objects) for 5 min, 24 h before the test, and test session comprised two trials separated by an inter trial interval (ITI). […] Exploration time of the objects and the distance traveled were measured using the Any-maze video tracking system. On the basis of exploration time (E) of two objects during T2, discrimination index (DI) was calculated according to the formula: DI = (EB – EA)/(EA + […]).
Data were analyzed using one-way ANOVA with treatment as between-subject factor. […]

5-HT6R [2] = target: T1, 5-HT6R (Homo sapiens, UniProt P50406); experiment: Basal cAMP production (constitutive Gs signaling) in NG108-15 cells transiently expressing 5-HT6R, CAMYEL BRET; format: cell-based; parameters: expressed in transfected cells; host or cells: NG108-15 (transient, Lipofectamine 2000, cotransfected with the CAMYEL sensor); conditions: for functional profile: 5-HT6R-dependent Gs signaling, NG108-15 cells; for IC50: decrease of basal cAMP, NG108-15 cells transiently expressing 5-HT6R
Method: NG108-15 cells were grown in Dulbecco’s modified Eagle’s medium (DMEM) supplemented with 10% dialyzed fetal calf serum, 2% hypoxanthine/aminopterin/thymidine (Life Technologies), and antibiotics. cAMP measurement was performed in cells transiently expressing 5-HT6R using the bioluminescence resonance energy transfer (BRET) sensor for cAMP, CAMYEL (cAMP sensor using YFP-Epac-RLuc).[45] NG108-15 cells were cotransfected in suspension with 5-HT6R (0.5 μg DNA/million cells) and CAMYEL constructs (1 μg DNA/million cells), using Lipofectamine 2000 according to the manufacturer’s protocol, and plated in white 96-well plates (Greiner) at a density of 50 000 cells per well. […] Coelanterazine H (Molecular Probes) was added at a final concentration of 5 μM and left at room temperature for 5 min. BRET was measured using a Mithras LB 940 plate reader (Berthold Technologies).

5-HT6R [3] = target: T1, 5-HT6R; experiment: Inhibition of 5-CT-stimulated cAMP production in 1321N1 cells; format: cell-based; parameters: expressed in transfected cells; conditions: antagonism of 5-CT (1000 nM)-stimulated cAMP
Method: The effect of compounds 18, 22, 27, and 28 on adenylate cyclase was examined in 1321N1 cells expressing the 5-HT6R.
The properties of compounds 18, 22, 27, 28 to inhibit cAMP production induced by 5-CT (1000 nM), a 5-HT6R agonist, were evaluated. Compounds were tested in triplicate at eight concentrations (10^–11–10^–4 M). The level of cAMP was measured using frozen recombinant 1321N1 cells expressing the human serotonin 5-HT6R (PerkinElmer). Total cAMP was measured using the LANCE cAMP detection kit (PerkinElmer), according to the manufacturer’s recommendations. For quantification of cAMP levels, 2000 cells/well (5 μL) were incubated with a mixture of compounds (5 μL) for 30 min at room temperature in 384-well white opaque microtiter plate. After incubation, the reaction was stopped and cells were lysed by the addition of 10 μL of working solution (5 μL of Eu-cAMP and 5 μL of ULight-anti-cAMP) for 1 h at room temperature. Time-resolved fluorescence resonance energy transfer (TR-FRET) was detected by an Infinite M1000 Pro (Tecan) using instrument settings from LANCE cAMP detection kit manual. Kb values were calculated from Cheng–Prusoff equation specific for the analysis of functional inhibition curves: Kb = IC50/(1 + A/EC50) where A represents agonist concentration, IC50 the concentration of antagonist producing a 50% reduction in the response to agonist, and EC50 the agonist concentration which causes a half of the maximal response.[44]

5-HT2AR = target: T2, 5-HT2AR (Homo sapiens, UniProt P28223); experiment: [3H]-ketanserin radioligand binding assay, CHO-K1 cells; conditions: mean of three experiments
T2 construct: host or cells: CHO-K1
T2 sequence (P28223 whole entry): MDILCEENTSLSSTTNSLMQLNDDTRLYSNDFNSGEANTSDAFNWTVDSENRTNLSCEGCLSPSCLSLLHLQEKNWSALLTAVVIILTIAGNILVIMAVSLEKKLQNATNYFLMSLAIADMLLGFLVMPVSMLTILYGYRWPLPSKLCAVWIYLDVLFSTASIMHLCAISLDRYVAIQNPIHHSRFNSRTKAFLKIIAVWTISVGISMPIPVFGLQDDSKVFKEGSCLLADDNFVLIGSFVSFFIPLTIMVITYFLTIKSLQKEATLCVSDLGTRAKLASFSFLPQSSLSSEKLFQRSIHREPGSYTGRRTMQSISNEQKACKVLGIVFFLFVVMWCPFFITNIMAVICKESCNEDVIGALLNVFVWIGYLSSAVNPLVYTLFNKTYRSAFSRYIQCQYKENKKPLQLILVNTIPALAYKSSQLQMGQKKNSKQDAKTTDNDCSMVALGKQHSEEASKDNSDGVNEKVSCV

T1 sequence (P50406 whole entry): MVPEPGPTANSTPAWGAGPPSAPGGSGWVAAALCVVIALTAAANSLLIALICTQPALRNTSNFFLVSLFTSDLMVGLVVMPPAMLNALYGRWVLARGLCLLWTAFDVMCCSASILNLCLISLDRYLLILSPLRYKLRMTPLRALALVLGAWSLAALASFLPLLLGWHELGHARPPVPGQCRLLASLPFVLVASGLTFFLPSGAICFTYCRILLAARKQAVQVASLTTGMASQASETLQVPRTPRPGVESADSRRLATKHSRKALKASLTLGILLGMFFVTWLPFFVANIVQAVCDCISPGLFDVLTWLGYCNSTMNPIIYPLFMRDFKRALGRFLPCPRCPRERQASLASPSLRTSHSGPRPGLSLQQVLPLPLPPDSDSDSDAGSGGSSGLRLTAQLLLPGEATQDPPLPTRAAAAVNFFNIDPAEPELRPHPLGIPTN

Compound	effect on scopolamine-induced cognitive deficits (discrimination index) ([1]; 3 mg/kg p.o.)	effect on scopolamine-induced cognitive deficits (discrimination index) ([1]; 6 mg/kg p.o.)	functional profile (5-HT6R [2])	IC50 (5-HT6R [2])	Kb (5-HT6R [3])	Ki (5-HT2AR)
O=C(N[C@@H]1CCNC1)c1ccn(S(=O)(=O)c2cccc(Cl)c2)c1-c1ccc(F)cc1 [Compound 27, (R)-2-(4-Fluorophenyl)-1-[(3-chlorophenyl)sulfonyl]-N-(pyrrolidin-3-yl)-1H-pyrrole-3-carboxamide]	not 3 mg/kg, prevented scopolamine-induced cognitive deficits	prevented scopolamine-induced cognitive deficits	inverse agonist	265 nM	11.4 nM	13500 nM
O=C(N[C@H]1CCNC1)c1ccn(S(=O)(=O)c2cccc(Cl)c2)c1-c1ccc(F)cc1 [Compound 28, (S)-2-(4-Fluorophenyl)-1-[(3-chlorophenyl)sulfonyl]-N-(pyrrolidin-3-yl)-1H-pyrrole-3-carboxamide]	–	–	inverse agonist	140 nM	7.6 nM	8570 nM
